From US10072055B2, “Anti-inflammatory pharmaceutical products” (Resother Pharma APS, priority 2011, dated 2018) come the findings set out here.

Entries after “also recorded” stand apart in the source; their conditions may differ. Ends that are not written are not given here.

The target of experiment [1] is T1, FPR2 (Homo sapiens, UniProt P25090).
T1 sequence (P25090 1-351): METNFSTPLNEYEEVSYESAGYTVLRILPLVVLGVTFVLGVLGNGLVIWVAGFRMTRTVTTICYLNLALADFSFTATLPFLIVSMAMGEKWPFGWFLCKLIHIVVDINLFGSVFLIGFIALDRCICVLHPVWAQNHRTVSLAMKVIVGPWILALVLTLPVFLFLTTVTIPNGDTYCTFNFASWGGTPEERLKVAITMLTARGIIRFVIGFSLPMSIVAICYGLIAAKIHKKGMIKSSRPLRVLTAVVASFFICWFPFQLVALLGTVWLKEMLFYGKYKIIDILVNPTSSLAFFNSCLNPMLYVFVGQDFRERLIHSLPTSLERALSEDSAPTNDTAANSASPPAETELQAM
Kind of experiment: FPR2 activation (ERK phosphorylation and intracellular calcium fluxes). It counts as cell-based. In general terms: A change in cytosolic calcium serves as a functional read-out for many receptors and channels.

Experiment [2] deals with leukocyte recruitment into the inflamed airpouch. Kind of experiment: Mouse IL-1β air-pouch inflammation model (leukocyte migration). The class given is in vivo. Particulars: for inhibition of leukocyte infiltration/recruitment in air-pouch model: mouse air-pouch. Here is the method:
FIG. 3A and FIG. 3B are a series of bar charts comparing the anti-inflammatory effects of three polypeptides (Pep57 (SEQ ID NO:12); Pep59 (SEQ ID NO:13) and Pep84 (SEQ ID NO:14)) of the present disclosure versus a vehicle-only control.
FIG. 3A and FIG. 3B are a series of bar charts comparing the anti-inflammatory effects of three polypeptides (Pep57 (SEQ ID NO: 12); Pep59 (SEQ ID NO: 13) and Pep84 (SEQ ID NO: 14)) of the present disclosure versus a vehicle-only control. Mice received 200 μl i.v. of saline+DMSO or a dose of 50 μg per animal of one of the three Ac2-26 derived peptides, immediately before the local injection of mouse IL-1β into 6-day-old airpouches. The extent of cell migration was determined 4 h later, following airpouch washing and staining of migrated cells with Gr1 marker. […] Data are mean±SEM of 5 mice per group. *P<0.05 vs. vehicle group (one way ANOVA).

Experiment [3] has as its system PMN interaction to an activated HUVEC monolayer. Kind of experiment: Flow chamber assay: PMN interaction with activated HUVEC monolayer (capture, rolling, adhesion). The class given is cell-based, human. To be noted: for inhibition of PMN/neutrophil-endothelium interactions in flow chamber: concentration not given; for inhibition of PMN interaction with HUVECs (capture, adhesion, rolling): 10 μM peptide, 10 min at 37° C., flow 8 min at 1 dyne/cm^2; for lowest concentration with activity on PMN-HUVEC interactions: flow chamber model. The source says: FIGS. 2A-2C are a series of charts reporting data from flow chamber analysis to determine the inhibitory capability of five polypeptides of the present disclosure (Pep57 (SEQ ID NO:12); Pep59 (SEQ ID NO:13), Pep60 (SEQ ID NO:15), Pep83 (SEQ ID NO:16) and Pep84 (SEQ ID NO:14)) and Ac-ANAX1(2-26)-OH to reduce PMN interaction to an activated HUVEC monolayer.
FIGS. 4A-4C are a series of bar charts reporting percent inhibition provided by three polypeptides (UGP022 (SEQ ID NO:5); UGP025 (SEQ ID NO:7) and UGP026 (SEQ ID NO:8)) of the present disclosure, at different concentrations, on three different parameters (capture—FIG. 4A; rolling—FIG. 4B; and adhesion—FIG. 4C).
FIGS. 2A-2C are a series of charts reporting data from flow chamber analysis to determine the inhibitory capability of five polypeptides (Pep57 (SEQ ID NO: 12); Pep59 (SEQ ID NO: 13), Pep60 (SEQ ID NO: 15), Pep83 (SEQ ID NO: 16) and Pep84 (SEQ ID NO: 14)) of the present disclosure and Ac-ANAX1(2-26)-OH to reduce PMN interaction to an activated HUVEC monolayer. PMNs (5×10^6) were incubated with 10 μM of the various peptides for 10 min at 37° C. The PMNs were then flowed for 8 min at 1 dyne/cm^2, prior to quantifying the degree of PMN interaction with the HUVECs, both as PMN capture (FIG. 2A), adhesion (FIG. 2B) and rolling (FIG. 2C). […] Data are mean±SEM of 3 independent experiments (with distinct PMN and HUVEC preparations); *=P<0.05 vs. CT group, data analyzed using one way ANOVA.
FIGS. 4A-4C make a direct comparison of the activities of UGP022 (SEQ ID NO:5), UGP025 (SEQ ID NO: 7) and UGP026 (SEQ ID NO: 8) in the flow chamber assay, presenting the degree of inhibition on the three parameters under analysis (capture (FIG. 4A); rolling (FIG. 4B) and adhesion (FIG. 4C)).

Experiment [4] addresses T1, FPR2. Kind of experiment: Binding affinity to FPR2.
The target in a further experiment is T2, FPR1 (Homo sapiens, UniProt P21462).
T2 sequence (P21462 1-350): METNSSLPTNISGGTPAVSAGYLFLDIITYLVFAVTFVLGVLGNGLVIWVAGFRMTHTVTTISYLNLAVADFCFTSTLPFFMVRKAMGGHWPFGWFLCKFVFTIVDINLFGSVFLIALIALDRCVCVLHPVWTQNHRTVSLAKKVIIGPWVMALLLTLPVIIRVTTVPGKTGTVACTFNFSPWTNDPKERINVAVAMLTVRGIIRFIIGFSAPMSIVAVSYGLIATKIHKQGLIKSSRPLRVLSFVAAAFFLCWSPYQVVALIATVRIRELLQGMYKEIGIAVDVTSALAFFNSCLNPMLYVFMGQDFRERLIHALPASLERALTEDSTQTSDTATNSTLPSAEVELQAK
Kind of experiment: FPR1 activation (ERK phosphorylation and intracellular calcium fluxes). The class given is cell-based.

Experiment [5] deals with T1, FPR2. Put plainly: p-ERK activation in HEK-FPR2 cells (western blot, densitometry p-ERK vs t-ERK). Particulars: for p-ERK activation through the FPR2 receptor: 10 μM peptide, 8 minutes, HEK-FPR2 cells. Set-up: expressed in transfected cells; host or cells: HEK cells (HEK-FPR2). It counts as cell-based. The source says:
FIG. 1A and FIG. 1B show western blotting analysis comparing p-ERK activation potency through the FPR2 receptor for five polypeptides of the present disclosure (Pep57 (SEQ ID NO:12); Pep59 (SEQ ID NO:13), Pep60 (SEQ ID NO:15), Pep83 (SEQ ID NO:16) and Pep84 (SEQ ID NO:14)) relative to Ac-ANAX1(2-26)-OH. FIG. 1A is a representative blot for p-ERK and t-ERK.
The experiments whose results are reported in FIG. 1A and FIG. 1B were directed to determining which of the five polypeptides tested (Pep57 (SEQ ID NO: 12); Pep59 (SEQ ID NO: 13), Pep60 (SEQ ID NO: 15), Pep83 (SEQ ID NO: 16) and Pep84 (SEQ ID NO: 14)) best activated the p-ERK through the FPR2 receptor, similar to Ac-ANAX1(2-26)-OH, the parent peptide. The HEK-FPR2 cells were co-incubated with 10 μM of the novel Ac2-26 peptides for 8 minutes following which the cell were lysed and resuspended in cell lysis solution. Then 100 ng of total protein were loaded on to 10% polyacrylamide gel. Following electrophoresis, transfer and blocking the membrane was first probed with an anti p-ERK antibody and then stripped and reprobed with and anti total ERK antibody. […] Data presented as mean and SEM of 3 distinct experiments with one way ANOVA employed for statistical analysis. (*=P<0.05 vs. CT).
In general terms: In western blotting, separated proteins are transferred to a membrane and probed.

Where [6] appears, read: 50 μg per animal i.v., IL-1β, 4 h.

For the substance “ANXA1(2-50) Gly51-OH (AMVSEFLKQAWFIENEEQEYVQTVKSSKGGPGSAVSPYPTFNPSSDVAAG-OH; ends and bridges not checked) [UGP021, 50 amino acids; amino acids 2-50 of human Annexin 1, position 50 of the polypeptide is glycine]”, the “activation of FPR2” value in the experiment with FPR2 [1] was “could activate both FPR1 and FPR2”. Moreover, the “inhibition of leukocyte infiltration/recruitment in air-pouch model” value in experiment [2] is “more potent than Ac-ANXA1(2-26)-OH and full length ANXA1; also recorded: possess anti-inflammatory activities in an in vivo assay of leukocyte recruitment”. In addition, the “inhibition of PMN/neutrophil-endothelium interactions in flow chamber” value in experiment [3] was “more potent than Ac-ANXA1(2-26)-OH and full length ANXA1”. The “binding affinity to FPR2” value with FPR2 [4] is “binding affinity to the FPR2 in the nanomolar range”. Also, the “activation of FPR1” value in the experiment with FPR1 is “could activate both FPR1 and FPR2”.

On to “ANXA1(2-50)-OH (AMVSEFLKQAWFIENEEQEYVQTVKSSKGGPGSAVSPYPTFNPSSDVAA-OH; ends and bridges not checked) [UGP024, 49 amino acids; amino acids 2-50 of human Annexin 1]”, for which the “activation of FPR2” value with FPR2 [1] is “could activate both FPR1 and FPR2”. The “inhibition of leukocyte infiltration/recruitment in air-pouch model” value in experiment [2] is “more potent than Ac-ANXA1(2-26)-OH and full length ANXA1; also recorded: possess anti-inflammatory activities in an in vivo assay of leukocyte recruitment”. Also, the “inhibition of PMN/neutrophil-endothelium interactions in flow chamber” value in experiment [3] was “more potent than Ac-ANXA1(2-26)-OH and full length ANXA1”. Also, in the experiment with FPR1, the “activation of FPR1” value was “could activate both FPR1 and FPR2”.

For the substance “Ac-ANAX1(2-26)-OH (Ac-AMVSEFLKQAWFIENEEQEYVQTVK-OH) [Ac2-26, parent peptide; mimics the 2nd to the 26th amino acids of the Annexin A1 N-terminal region, N-terminally acetylated, reference compound]”, in experiment [3], the “inhibition of PMN interaction with HUVECs (capture, adhesion, rolling)” value (“inhibition of PMN interaction” for short) is given as “inhibitory properties”. Also, the “p-ERK activation through the FPR2 receptor” value with FPR2 [5] is given as “activation caused by the parent Ac2-26”.

With “Asp11,22-Ac-ANAX1(2-26)-OH (Ac-AMVSEFLKQDWFIENEEQEYDQTVK-OH) [Pep59, 25 amino acids; Annexin 1 (2-26), residues 10 and 21 aspartic acid, residue 1 acetylated]”, the “inhibition of PMN interaction” value in experiment [3] is given as “did not display any inhibitory properties in this assay”. Besides, in the experiment with FPR2 [5], the “downstream signaling via the FPR family of receptors” value was “lead to downstream signaling via the FPR family of receptors” and the “p-ERK activation through the FPR2 receptor” value was “p-ERK activated was observed to be highest; also recorded: very high p-ERK activation potential”.

As for “Glu11,22-Ac-ANAX1(2-26)-OH (Ac-AMVSEFLKQEWFIENEEQEYEQTVK-OH) [Pep60, 25 amino acids; Annexin 1 (2-26), residues 10 and 21 glutamic acid, residue 1 acetylated]”, in experiment [3], the “inhibition of PMN interaction” value is given as “displayed potent inhibitory properties similar to those displayed by the parent Ac2-26 peptide”. For the same substance, the “p-ERK activation through the FPR2 receptor” value with FPR2 [5] is “not that effective to phosphorylate ERK”.

Regarding “Ile11,22-Ac-ANAX1(2-26)-OH (Ac-AMVSEFLKQIWFIENEEQEYIQTVK-OH) [Pep83, 25 amino acids; Annexin 1 (2-26), residues 10 and 21 isoleucine, residue 1 acetylated]”, the “inhibition of PMN interaction” value in experiment [3] was “only Pep57 (SEQ ID NO: 12), Pep60 (SEQ ID NO: 15) and Pep84 (SEQ ID NO: 14) display inhibitory properties”.

On to “Leu11,22-Ac-ANAX1(2-26)-OH (Ac-AMVSEFLKQLWFIENEEQEYLQTVK-OH) [Pep57, 25 amino acids; Annexin 1 (2-26), residues 10 and 21 leucine, residue 1 acetylated]”, for which, in experiment [2] (setting [6]), the “GR1+ve cells in air-pouch (FIG. 3B)” value was “losing this observed effect” and the “migrated cell count in air-pouch (FIG. 3A)” value was “display anti-inflammatory properties”. Moreover, the “inhibition of leukocyte infiltration/recruitment in air-pouch model” value in experiment [2] is given as “significantly inhibiting leukocyte infiltration; also recorded: displayed inhibitory potential in the model”. In experiment [3], the “inhibition of PMN interaction” value is “displayed inhibitory properties similar to those observed in the parent Ac2-26 peptide”; the “inhibition of PMN/neutrophil-endothelium interactions in flow chamber” value was “significantly inhibited PMN-HUVEC interactions”; the “lowest concentration with activity on PMN-HUVEC interactions” value came to 10 pM. Besides, in the experiment with FPR2 [5], the “downstream signaling via the FPR family of receptors” value was “lead to downstream signaling via the FPR family of receptors” and the “p-ERK activation through the FPR2 receptor” value was “p-ERK activated was observed to be highest”.

As for “Met11,22-Ac-ANAX1(2-26)-OH (Ac-AMVSEFLKQMWFIENEEQEYMQTVK-OH) [Pep84]”, the “migrated cell count in air-pouch (FIG. 3A)” value in experiment [2] (setting [6]) is given as “display anti-inflammatory properties”. Besides, the “inhibition of leukocyte infiltration/recruitment in air-pouch model” value in experiment [2] was “inhibiting this inflammatory readout to a larger extent”. In addition, in experiment [3], the “inhibition of PMN interaction” value is “displayed inhibitory properties similar to those observed in the parent Ac2-26 peptide”; the “inhibition of PMN/neutrophil-endothelium interactions in flow chamber” value is “significantly inhibited PMN-HUVEC interactions”; the “lowest concentration with activity on PMN-HUVEC interactions” value turned out to be 10 pM. Besides, in the experiment with FPR2 [5], the “downstream signaling via the FPR family of receptors” value is listed as “lead to downstream signaling via the FPR family of receptors” and the “p-ERK activation through the FPR2 receptor” value is listed as “p-ERK activated was observed to be highest”.
